SMILES strings stand for the structures.

Data on 1 compound can be found in patent publication US20240252472A1, “COMBINATIONS FOR TREATING CANCER” (Purdue Pharma L.P., priority 2023, published 2024).

Series [1] has as its system subcutaneous plasmacytoma derived from MM.1S cells. Put plainly: First subcutaneous plasmacytoma model, NSG mice with human NK cells. It counts as in vivo. As to conditions: EDO-S101 30 mg/kg i.v. weekly, daratumumab 8 mg/kg i.p. weekly, 4 weeks; vehicle 30 days. The procedure:
For the first subcutaneous human plasmacytoma model, NSG mice (Charles River Laboratories, Wilmington, MA, USA) were subcutaneously inoculated into the right flank with 3×10^6 MM1S in 100 μL RPMI 1640 medium and 100 μL of Matrigel (BD Biosciences). When tumors developed, mice were injected with human NK cells isolated from buffy coats from healthy donors and randomized (4 mice/group) to receive: EDO-S101 (30 mg/kg, iv weekly), daratumumab (8 mg/kg, ip weekly), a combination thereof, or vehicle (PBS vehicle solution with 15% HPBCD, 1.5% acetic acid, and 1.25% NaHCO3). Both, NK cells and the treatments were administered over four consecutive weeks. Caliper measurements of the tumor diameters were performed three times a week, and the tumor volume was estimated as the volume of a 3D ellipse using the following formula: V=4/3π×(a/2)×(b/2)^2, where “a” and “b” correspond to the longest and shortest diameter, respectively. Animals were killed when their tumors reached 2 cm. Differences in tumor volumes between control and treated groups were evaluated using one-way analysis of variance and Dunn's post-hoc tests. […]

Series [2] relates to MM cell lines (MM.1S, RPMI-8226, MOLP-8). Description: NK-cell direct cytotoxicity on pre-treated MM cells. It counts as cell-based, human. As to conditions: pre-treatment 2.5 μM 48 hours, NK cells ratio 1:1, 4 hours, vs DMSO-pretreated. The procedure:
ADCC, CDC and apoptosis via cross-linking To assess the effect of tinostamustine pre-treatment on cytotoxic mechanisms mediated by daratumumab, MM cell lines were first incubated in presence of tinostamustine (2.5 μM) or DMSO for 48 hours. Cells were then washed to remove tinostamustine or DMSO from the culture medium, and the corresponding cytotoxic assay (ADCC, CDC or apoptosis via cross-linking) was performed.
For the evaluation of ADCC, tinostamustine or DMSO pre-treated cells were cocultured with NK cells obtained from healthy donors in the presence of daratumumab (1 μg/ml) or the corresponding isotype control for 4 hours (ratio 1:1). Briefly, peripheral blood mononuclear cells (PBMCs) were isolated from healthy donor buffy coats by Lymphoprep density gradient centrifugation. […] In all three assays, the cytotoxic effect on MM cells was evaluated by flow cytometry with Annexin V/7AAD staining after treatment with daratumumab. […]
MM cells (MM1.S, RPMI-8226, MOLP-8 cells pre-treated with 0 or 2.5 μM EDO-S101 in accordance with the methods outlined above) were co-cultured with NK-cells (ratio 1:1), in the presence of daratumumab (1 μg/mL) or the corresponding isotype control, for 4 hours at 37° C. […] ADCC was then evaluated using flow cytometry in accordance with the methods outlined above, using the following panel: CD38me-FITC/AnnexinV-PE/7AAD/CD45-APC.

In the next series the test system is CD38. Put plainly: CD38 expression by western blot in MM cell lines. It counts as cell-based, human. The procedure: Western Blot Analysis Cells were collected and centrifuged at 1200 rpm for 5 minutes at 4° C. Cells were washed with PBS and lysed in ice-cold lysis buffer [140 mmol/L NaCl, 10 mmol/L EDTA, 10% glycerol, 1% NP40, 20 mmol/L Tris (pH 7), 1 μMol/L pepstatin, 1 μg/mL aprotinin, 1 μg/mL leupeptin, 1 mmol/L sodium orthovanadate]. Samples were centrifuged at 10,000×g at 4° C. for 10 minutes, and supernatants were transferred to new tubes and western blots were performed following standard procedures. CD38 and anti-α-tubulin primary antibodies used in Western blot analyses were obtained from Cell Signaling (Boston, MA, USA). The horseradish peroxidase-conjugated secondary antibodies were from GE Healthcare (Chicago, IL, USA).
In general terms: A western blot detects proteins with antibodies after separation by electrophoresis.

Turning to `Cn1c(CCCCCCC(=O)NO)nc2cc(N(CCCl)CCCl)ccc21` [EDO-S101, 7-(5-(bis(2-chloroethyl)amino)-1-methyl-1H-benzo[d]imidazol-2-yl)-N-hydroxyheptanamide], the median survival in series [1] was found to be 48 days. Moreover, the “percentage of dead myeloma cells, NK-cell direct cytotoxicity (no daratumumab)” value in series [2] was “significantly enhances”; in series [2] (listed as tinostamustine) it was “significantly increased”. The “CD38 expression, western blot” value with CD38 (MM1.S, JJN3, RPMI-8226, 1 and 2.5 μM) is given as “increased”. In the series with CD38 (MOLP-8 cells), the “increase in CD38 by Western blot and RT-qPCR” value is listed as “not observed”.
